Some results are limits rather than exact numbers.

These results are taken from US20260083851A1 (AVILAR THERAPEUTICS, INC., priority 2022, published 2026).

One experiment has as its target T1, ASGP receptor (biotinylated ASGPR) (Homo sapiens, UniProt P07306).
T1 construct: biotin (biotinylated)
T1 sequence (P07306 1-291): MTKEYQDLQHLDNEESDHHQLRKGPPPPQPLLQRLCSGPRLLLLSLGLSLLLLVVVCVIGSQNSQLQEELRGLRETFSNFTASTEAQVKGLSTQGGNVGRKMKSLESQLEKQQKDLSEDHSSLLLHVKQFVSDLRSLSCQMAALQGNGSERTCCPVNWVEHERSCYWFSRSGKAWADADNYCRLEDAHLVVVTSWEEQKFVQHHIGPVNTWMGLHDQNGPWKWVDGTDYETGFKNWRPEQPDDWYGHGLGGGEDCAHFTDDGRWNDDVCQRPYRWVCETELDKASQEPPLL
The class given is binding. The following applies: SPR, Biacore 8K, 25° C.; Table 1C, numeric bound; read-out: ASGPR KD. In general terms: Surface plasmon resonance follows binding to a sensor surface in real time, without labels.
The Kd is the free concentration of one partner at which half of the binding sites on the other are occupied at equilibrium, for simple one-to-one binding. As for `OC[C@H]1OC[C@H](Nc2ncc3nc[nH]c3n2)[C@@H](O)[C@H]1O` [A197, (2R,3R,4R,5S)-5-((9H-purin-2-yl)amino)-2-(hydroxymethyl)tetrahydro-2H-pyran-3,4-diol], the Kd was above 30 µM.

Staying with this experiment, now noted: SPR, Biacore 8K, 25° C.; Table 1C; read-out: ASGPR KD.
Take `O[C@@H]1[C@H](O)[C@@H](Oc2cccc(C(F)(F)F)n2)CO[C@@H]1COc1ccc(-c2ccccc2)cc1` [A190, (2R,3R,4S,5S)-2-(([1,1′-biphenyl]-4-yloxy)methyl)-5-((6-(trifluoromethyl)pyridin-2-yl)oxy)tetrahydro-2H-pyran-3,4-diol]: the Kd was below 10 µM. Take `NC[C@H]1OC[C@H](Oc2cccc(C(F)(F)F)n2)[C@@H](O)[C@H]1O` [A192, (2R,3R,4S,5S)-2-(aminomethyl)-5-((6-(trifluoromethyl)pyridin-2-yl)oxy)tetrahydro-2H-pyran-3,4-diol]: the dissociation constant Kd is below 10 µM. Same read-out and setting: under `CC(C)(C)OC(=O)N1CCC(n2cc([C@H]3OC[C@H](Nc4cncc(C(F)(F)F)n4)[C@@H](O)[C@H]3O)nn2)CC1` [A193, tert-butyl 4-(4-((2R,3R,4R,5S)-3,4-dihydroxy-5-((6-(trifluoromethyl)pyrazin-2-yl)amino)tetrahydro-2H-pyran-2-yl)-1H-1,2,3-triazol-1-yl)piperidine-1-carboxylate] stands below 10 µM; under `O=C(O)c1cnc(OC[C@H]2OC[C@H](Nc3cncc(C(F)(F)F)n3)[C@@H](O)[C@H]2O)nc1` [A194, 2-(((2R,3R,4R,5S)-3,4-dihydroxy-5-((6-(trifluoromethyl)pyrazin-2-yl)amino)tetrahydro-2H-pyran-2-yl)methoxy)pyrimidine-5-carboxylic acid], below 10 µM; under `CC(C)(C)OC(=O)N1CC=C(c2cccc(N[C@H]3CO[C@H](CO)[C@H](O)[C@@H]3O)n2)CC1` [A195, tert-butyl 6-(((3S,4R,5R,6R)-4,5-dihydroxy-6-(hydroxymethyl)tetrahydro-2H-pyran-3-yl)amino)-3′,6′-dihydro-[2,4′-bipyridine]-1′(2′H)-carboxylate], below 10 µM. Same read-out and setting: under `O[C@@H]1[C@H](O)[C@@H](Nc2cccc(C(F)(F)F)n2)CO[C@@H]1COc1ccc(-c2ccccc2)cc1` [A196, (2R,3R,4R,5S)-2-(([1,1′-biphenyl]-4-yloxy)methyl)-5-((6-(trifluoromethyl)pyridin-2-yl)amino)tetrahydro-2H-pyran-3,4-diol] stands below 10 µM. Still for that read-out and setting: in the case of `O[C@@H]1[C@H](O)[C@@H](Oc2cccc(C(F)(F)F)n2)CO[C@@H]1COc1ccc(Br)c(F)c1` [A198, (2R,3R,4S,5S)-2-((4-bromo-3-fluorophenoxy)methyl)-5-((6-(trifluoromethyl)pyridin-2-yl)oxy)tetrahydro-2H-pyran-3,4-diol] it was below 10 µM; in that of `O=C(O)c1ccc(CN2CCN(C[C@H]3OC[C@H](Nc4cncc(C(F)(F)F)n4)[C@@H](O)[C@H]3O)CC2)cc1` [A199, 4-((4-(((2R,3R,4R,5S)-3,4-dihydroxy-5-((6-(trifluoromethyl)pyrazin-2-yl)amino)tetrahydro-2H-pyran-2-yl)methyl)piperazin-1-yl)methyl)benzoic acid], below 10 µM; in that of `O[C@@H]1[C@H](O)[C@@H](Nc2cncc(C(F)(F)F)n2)CO[C@@H]1c1cn(C2CCNCC2)nn1` [A200, (2R,3R,4R,5S)-2-(1-(piperidin-4-yl)-1H-1,2,3-triazol-4-yl)-5-((6-(trifluoromethyl)pyrazin-2-yl)amino)tetrahydro-2H-pyran-3,4-diol], below 10 µM. Take `O[C@@H]1[C@H](O)[C@@H](Nc2cncc(C(F)(F)F)n2)CO[C@@H]1c1cn(-c2ccccc2)nn1` [A201, (2R,3R,4R,5S)-2-(1-phenyl-1H-1,2,3-triazol-4-yl)-5-((6-(trifluoromethyl)pyrazin-2-yl)amino)tetrahydro-2H-pyran-3,4-diol]: the dissociation constant Kd was below 10 µM. The same measure, in the same setting: under `O[C@@H]1[C@H](O)[C@@H](Nc2cncc(C(F)(F)F)n2)CO[C@@H]1COc1ccc(-c2ccccc2)cc1` [A202, (2R,3R,4R,5S)-2-(([1,1′-biphenyl]-4-yloxy)methyl)-5-((6-(trifluoromethyl)pyrazin-2-yl)amino)tetrahydro-2H-pyran-3,4-diol] stands below 10 µM.
